# Measured values taken from patent US12653190B2, “Heteroaryl-triazole compounds as pesticides” (Bayer Aktiengesellschaft, priority 2020, dated 2026).
# Columns and labels:
# Assay type in all cases: in vivo
# [1] = test system: Rhipicephalus (Boophilus) microplus larvae (strain Parkhurst, resistant against synthetic pyrethroids); assay: Rhipicephalus (Boophilus) microplus in-vitro contact test, larval cattle tick; details: 5 μg/cm^2 (=500 g/ha), after 48 hours, read-out: efficacy (larvae dead or moribund)
# Protocol: Rhipicephalus (Boophilus) microplus—In-Vitro Contact Tests Larval Cattle Tick (Strain Parkhurst, Resistant Against Synthetic Pyrethroids)
# 9 mg compound is solved in 1 mL acetone and diluted with acetone to the desired concentration. 250 μL of the test solution is filled in 25 mL glass test tubes and homogeneously distributed on the inner walls by rotation and tilting on a shaking device (2 h at 30 rpm). With a compound concentration of 900 ppm, an inner surface of 44.7 cm^2 and a homogeneous distribution, a dose of 5 μg/cm^2 is achieved.
# After the solvent has evaporated, each test tube is filled with 20-50 cattle tick larvae (Rhipicephalus microplus), closed with a perforated lid and incubated in a horizontal position at 85% relative humidity and 27° C. in an incubator. After 48 hours efficacy is determined. The larvae are patted on the ground of the tubes and negative geotactic behavior is recorded.
# An efficacy of 100% means all larvae are dead or moribund; 0% means no larvae are dead or moribund.
# [2] = test system: adult engorged female ticks (Rhipicephalus microplus); assay: Rhipicephalus (Boophilus) microplus injection test; details: 168 h, egg deposition monitored after 7 days, read-out: efficacy (infertile eggs); for pest or weed control at 4 µg/tick: 4 μg/tick injected; for pest or weed control at 20 µg/tick: 20 μg/tick injected
# Protocol: Rhipicephalus (Boophilus) microplus—Iniectiontest
# (§1) • Solvent: dimethyl sulfoxide
# To produce a suitable preparation of active compound, 10 mg of active compound are dissolved in 0.5 mL solvent, and the concentrate is diluted with solvent to the desired concentration.
# Five adult engorged female ticks (Rhipicephalus microplus) are injected with 1 μL compound solution into the abdomen. The ticks are transferred into replica plates and incubated in a climate chamber.
# After 7 days egg deposition of fertile eggs is monitored. Eggs where fertility is not visible are stored in a climate chamber till hatching after about 42 days. An efficacy of 100% means all eggs are infertile; 0% means all eggs are fertile.
# [3] = test system: adult unfed cat fleas (Ctenocephalides felis); assay: Ctenocephalides felis oral test; details: 48 h, 100 ppm in cattle blood, after 2 days
# Protocol: Ctenocephalides felis—Oral Test
# as §1
# To produce a suitable preparation of active compound, 10 mg of active compound are dissolved in 0.5 mL solvent, and the concentrate is diluted with cattle blood to the desired concentration.
# Approximately 20 adult unfed cat fleas (Ctenocephalides felts) are placed in flea chambers. The blood chamber, sealed with parafilm on the bottom, are filled with cattle blood supplied with compound solution and placed on the gauze covered top of the flea chamber, so that the fleas are able to suck the blood. The blood chamber is heated to 37° C. whereas the flea chamber is kept at room temperature.
# After 2 days mortality in % is determined. 100% means all the fleas have been killed; 0% means none of the fleas have been killed.
# [4] = test system: larvae of the banded cucumber beetle (Diabrotica balteata); assay: Diabrotica balteata spray test; details: 168 h, 100 g/ha (=32 μg/well), after 7 days, wheat seeds, read-out: efficacy (seedling growth)
# Protocol: Diabrotica balteata—Spray Test
# (§2) • Solvent: 78.0 parts by weight of acetone • 1.5 parts by weight of dimethylformamide • Emulsifier: alkylarylpolyglycol ether
# (§3) To produce a suitable preparation of active compound, 1 part by weight of active compound is mixed with the stated amount of solvent, and the concentrate is diluted with water, containing an emulsifier concentration of 1000 ppm, to the desired concentration. Further test concentrations are prepared by dilution with emulsifier containing water.
# Soaked wheat seeds (Triticum aestivum) are placed in a multiple well plate filled with agar and some water and are incubated for 1 day to germinate (5 seeds per well). The germinated wheat seeds are sprayed with a test solution containing the desired concentration of the active ingredient. Afterwards each unit is infected with 10-20 larvae of the banded cucumber beetle (Diabrotica balteata).
# After 7 days efficacy in % is determined. 100% means all the seedlings have grown up like in the untreated, uninfected control; 0% means none of the seedlings have grown.
# [5] = test system: fall armyworm larvae (Spodoptera frugiperda); assay: Spodoptera frugiperda spray test; details: in Zea mays, 168 h
# Protocol: Spodoptera frugiperda—Spray Test
# (§4) • Solvent: 78.0 parts by weight acetone • 1.5 parts by weight dimethylformamide • Emulsifier: alkylarylpolyglycol ether
# as §3, with “solvents” for “solvent,”, “and” for “and the concentrate”
# Maize (Zea mays) leaf sections are sprayed with a preparation of the active ingredient of the desired concentration. Once dry, the leaf sections are infested with fall armyworm larvae (Spodoptera frugiperda). After 7 days mortality in % is determined. 100% means all caterpillars have been killed and 0% means none of the caterpillars have been killed.
# [6] = test system: larvae of the southern green stink bug (Nezara viridula); assay: Nezara viridula spray test; details: 96 h, after 4 days, barley plants
# Protocol: Nezara viridula—Spray Test
# as §2, §3
# Barley plants (Hordeum vulgare) are sprayed with a test solution containing the desired concentration of the active ingredient and are infested with larvae of the southern green stink bug (Nezara viridula).
# After 4 days mortality in % is determined. 100% means all the stink bugs have been killed; 0% means none of the stink bugs have been killed.
# [7] = test system: green peach aphid (Myzus persicae); assay: Myzus persicae spray test; details: foliar, 120 h, after 5 days, Chinese cabbage leaf disks
# Protocol: Myzus persicae—Spray Test
# as §4
# as §3, with “solvents” for “solvent,”, “and” for “and the concentrate”
# Chinese cabbage (Brassica pekinensis) leaf disks infected with all instars of the green peach aphid (Myzus persicae), are sprayed with a preparation of the active ingredient of the desired concentration.
# After 5 days mortality in % is determined. 100% means all aphids have been killed and 0% means none of the aphids have been killed.
# [8] = test system: adult mosquitoes Culex quinquefasciatus strain P00; assay: Culex quinquefasciatus test (CULXFA surface treatment & contact assay); details: 24 hours after contact, read-out: efficacy (mortality); for mortality at 20 mg/m2: surface concentration 20 mg/m^2, 30 minutes exposure; for mortality at 4 mg/m2: surface concentration 4 mg/m^2, 30 minutes exposure
# Protocol: Culex quinquefasciatus Test (CULXFA Surface Treatment & Contact Assay)
# (§5) • Solvent: Aceton+2000 ppm rapeseed oil methyl ester (RME)
# In order to produce a sufficient, active ingredient containing solution it is necessary to solve the test compound in the solvent-mix (acetone at 2 mg/ml/RME 2 000 ppm). This solution is pipetted onto a glazed tile and after evaporation of the acetone, adult mosquitoes of the species Culex Quinquefasciatus strain P00 are placed onto the dried surface. The exposure time is 30 minutes. Mortality in percent (%) is determined 24 hours after contact of the insects to the treated surface. 100% mortality means that all tested insects are dead, whereas 0% means that no insect died.
# [9] = test system: adult flies Musca domestica strain WHO-N; assay: Musca domestica test (MUSCDO surface treatment & contact assay); details: 24 hours after contact, read-out: efficacy (mortality); for mortality at 4 mg/m2: surface concentration 4 mg/m^2, 30 minutes exposure; for mortality at 20 mg/m2: surface concentration 20 mg/m^2, 30 minutes exposure
# Protocol: Musca domestica Test (MUSCDO Surface Treatment & Contact Assay)
# as §5
# (§6) In order to produce a sufficient, active ingredient containing solution it is necessary to solve the test compound in the solvent-mix (acetone at 2 mg/ml/RME 2000 ppm). This solution is pipetted onto a glazed tile and after evaporation of the acetone, adult flies of the species Musca domestica strain WHO-N are placed onto the dried surface. The exposure time is 30 minutes.
# (§7) Mortality in percent (%) is determined 24 hours after contact of the insects to the treated surface. 100% mortality means that all tested insects are dead, whereas 0% means that no insect died.
# [10] = test system: adult mosquitoes Aedes aegypti strain MONHEIM; assay: Aedes aegypti test (AEDSAE surface treatment & contact assay); details: 24 hours after contact, read-out: efficacy (mortality); for mortality at 4 mg/m2: surface concentration 4 mg/m^2, 30 minutes exposure; for mortality at 20 mg/m2: surface concentration 20 mg/m^2, 30 minutes exposure
# Protocol: Aedes aegypti Test (AEDSAE Surface Treatment & Contact Assay)
# as §5
# as §6, with “mosquitoes” for “flies”, “Aedes aegypti” for “Musca domestica”, “MONHEIM” for “WHO-N”
# as §7
Structure (SMILES),"pest or weed control at 5 µg/cm2, 5 µg/cm2 [1]","pest or weed control at 32 µg/disc, 100 g/ha [4]",mortality at 100 g/ha [5],mortality at 500 g/ha [6],mortality at 100 g/ha [7],further results
C[C@H](NC(=O)c1cc(Cl)cc(Oc2ccccc2)c1)c1ncnn1-c1ccc(C#N)cn1 [Example I-7],100%,,,,,pest or weed control at 4 µg/tick [2]: 100%; pest or weed control at 20 µg/tick [2]: 100%
C[C@H](NC(=O)c1cc(Cl)cc(Oc2ccc(Cl)cc2)c1)c1ncnn1-c1ccc(C#N)cn1 [Example I-8],,,,,,pest or weed control at 4 µg/tick [2]: 80%; pest or weed control at 20 µg/tick [2]: 100%; mortality at 100 ppm [3]: 90%
C[C@H](NC(=O)c1cc(Cl)cc(Cn2cc(C(F)(F)F)cn2)c1)c1ncnn1-c1ccc(C#N)cn1 [Example I-10],,,,,,pest or weed control at 4 µg/tick [2]: 100%; pest or weed control at 20 µg/tick [2]: 100%; mortality at 100 ppm [3]: 100%
C[C@H](NC(=O)c1cc(Br)cc(C=C(Cl)Cl)c1)c1ncnn1-c1ccc(C#N)cn1 [Example I-23],,,,,,pest or weed control at 4 µg/tick [2]: 100%; mortality at 100 ppm [3]: 100%
C[C@H](NC(=O)c1cc(OCC=C(Cl)Cl)cc(C(F)(F)F)c1)c1ncnn1-c1ccc(C#N)cn1 [Example I-26],100%,100%,,,,
C[C@H](NC(=O)c1cc(OCC(Cl)=C(Cl)Cl)cc(C(F)(F)F)c1)c1ncnn1-c1ncc(C#N)s1 [Example I-28],100%,100%,100%,,,pest or weed control at 4 µg/tick [2]: 100%
C[C@H](NC(=O)c1cc(Cl)cc(C(C)(C)C#N)c1)c1ncnn1-c1ncc(C#N)s1 [Example I-37],,100%,100%,100%,90%,mortality at 20 mg/m2 [8]: 80 to 100%
Cc1nc([C@H](C)NC(=O)c2cc(Cl)cc(C(C)(C)C#N)c2)n(-c2ncc(C(=O)N(C)C)s2)n1 [Example I-40],,80%,100%,,90%,
"C[C@H](NC(=O)c1cc(OC(F)(F)F)cc(C(C)(C)C#N)c1)c1ncnn1-c1ncc(C#N)s1 [Example I-43, 3-(1-Cyano-1-methyl-ethyl)-N-[(1S)-1-[2-(5-cyanothiazol-2-yl)-1,2,4-triazol-3-yl]ethyl]-5-(trifluoromethoxy)benzamide]",,100%,100%,100%,100%,mortality at 100 g/ha [6]: 100%; mortality at 4 mg/m2 [9]: 80 to 100%; mortality at 20 mg/m2 [9]: 80 to 100%; mortality at 4 mg/m2 [10]: 80 to 100%; mortality at 20 mg/m2 [10]: 80 to 100%; mortality at 4 mg/m2 [8]: 80 to 100%; mortality at 20 mg/m2 [8]: 80 to 100%
C[C@H](NC(=O)c1cc(OC(F)(F)F)cc(C(C)(C)C#N)c1)c1ncnn1-c1ccc(C#N)cn1 [Example I-45],100%,100%,,100%,90%,mortality at 100 g/ha [6]: 100%; mortality at 4 mg/m2 [9]: 80 to 100%; mortality at 20 mg/m2 [9]: 80 to 100%; mortality at 4 mg/m2 [10]: 80 to 100%; mortality at 20 mg/m2 [10]: 80 to 100%; mortality at 4 mg/m2 [8]: 80 to 100%; mortality at 20 mg/m2 [8]: 80 to 100%
CC(C)c1cc(C(=O)N[C@@H](C)c2ncnn2-c2ccc(C#N)cn2)cc(C(C)(C)C#N)c1 [Example I-48],100%,100%,83%,,,
C[C@H](NC(=O)c1cc(Br)cc(C(F)(F)C2CC2)c1)c1ncnn1-c1ncc(C#N)s1 [Example I-53],,100%,100%,,,mortality at 20 mg/m2 [10]: 80 to 100%
C[C@H](NC(=O)c1cc(CC#N)cc(OC(F)(F)F)c1)c1ncnn1-c1ncc(C#N)s1 [Example I-54],90%,,100%,,,
C[C@H](NC(=O)c1cc(OC(F)(F)F)cc(C(C)(C)C#N)c1)c1ncnn1-c1cnc(C#N)cn1 [Example I-56],,100%,100%,100%,90%,mortality at 100 g/ha [6]: 90%; mortality at 4 mg/m2 [10]: 80 to 100%; mortality at 20 mg/m2 [10]: 80 to 100%
C[C@H](NC(=O)c1cc(OC2CC2)cc(OC(F)(F)F)c1)c1nc(C2CC2)nn1-c1ncc(C#N)s1 [Example I-65],100%,,,,,
C[C@H](NC(=O)c1cc(OC(F)(F)F)cc(C(C)(C)C#N)c1)c1ncnn1-c1ncc(C(=O)N(C)C)s1 [Example I-73],,100%,100%,100%,100%,
CNC(=O)c1cnc(-n2ncnc2[C@H](C)NC(=O)c2cc(OC(F)(F)F)cc(C(C)(C)C#N)c2)s1 [Example I-74],,100%,100%,100%,100%,mortality at 100 g/ha [6]: 100%
C[C@H](NC(=O)c1cc(Cl)nc(C(C)(C)C#N)c1)c1ncnn1-c1cc(C#N)ncn1 [Example I-75],,100%,100%,100%,,
